# Test results as given in EPA's ToxValDB 9.5 (doi:10.2903/j.efsa.2008.138r).
# What was measured:
# Aphidius rhopalosiphi [1] = experiment: LR50; higher = less toxic; details: not reported; mortality
# Canidae = details: chronic; duration: 1 years; oral; Dog Other; clinical chemistry
# Beta vulgaris = details: acute; duration: 14 days; other
# Bibionidae = details: chronic/long-term; duration: 21 days; other
# Aphidius rhopalosiphi [2] = details: not reported; reproduction
# Oncorhynchus mykiss = details: acute; duration: 96 hours; mortality
# Colinus virginianus = details: for LD50: acute, oral, mortality
# Pleurozium sp. = details: acute; duration: 72 hours; biomass
# Daphnia magna = details: chronic/long-term; duration: 21 days; reproduction
# Apis mellifera = details: acute; duration: 48 hours; oral; unspecified; mortality
# Mus musculus = details: chronic; duration: 18 months; histopathology: neoplastic
structure (smiles),measurement,setting,value
Fc1ccc([C@@]2(Cn3cncn3)O[C@@H]2c2ccccc2Cl)cc1 [Epoxiconazole],LR50,Aphidius rhopalosiphi [1],> 246 g/ha
same,NOAEL,Canidae,1.6 mg/kg-day
same,LEL,Beta vulgaris,250 g/ha
same,NOEC,Bibionidae,0.0625 mg/L
same,LD50,"Rattus norvegicus; acute, oral, mortality",3160 mg/kg
same,NOAEL,"Rattus norvegicus; reproduction developmental, reproduction",2.3 mg/kg-day
same,LEL,Aphidius rhopalosiphi [2],246 g/ha
same,LC50,Oncorhynchus mykiss,3.14 µg/mL
same,LC50,"Tagia sp.; acute, duration: 14 days, mortality",> 1000 mg/kg
same,NOEC,"Tagia sp.; chronic/long-term, reproduction",0.167 mg/kg
same,LD50,Colinus virginianus; diet,> 5000 mg/kg
same,LD50,Colinus virginianus,> 2000 mg/kg
same,NOEL,Colinus virginianus; reproduction developmental,1 mg/kg-day
same,NOEC,Pleurozium sp.,0.0078 mg/L
same,NOEC,Daphnia magna,0.63 mg/L
same,LD50,Apis mellifera,> 83 µg/piece
same,NOAEL,Mus musculus,0.8 mg/kg-day
